In ChEMBL document CHEMBL3885881, “DrugMatrix”:

Organism: Rattus norvegicus
Experiment: DrugMatrix - Regimen: Daily Repeat
Assay type: toxicity, organism-based, Sprague-Dawley
Design: regimen Daily Repeat, gender Male, age 6-8 weeks
Conditions: in vivo, po, route oral GAVAGE, vehicle 100 % WATER; for ABSOLUTE BASOPHIL / ABSOLUTE EOSINOPHIL / ABSOLUTE LYMPHOCYTE / ABSOLUTE MONOCYTE / ABSOLUTE SEGMENTED NEUTROPHIL / BASOPHIL / EOSINOPHIL / ERYTHROCYTE COUNT / HEMATOCRIT / HEMOGLOBIN / LEUKOCYTE COUNT / LYMPHOCYTE / MEAN CORPUSCULAR HEMOGLOBIN / MEAN CORPUSCULAR HEMOGLOBIN CONCENTRATION / MEAN CORPUSCULAR VOLUME / MONOCYTE / NEUTROPHIL / NUCLEATED RED BLOOD CELLS / PLATELET COUNT: tissue Blood; for ALANINE AMINOTRANSFERASE / ALBUMIN / ALKALINE PHOSPHATASE / ASPARTATE AMINOTRANSFERASE / BLOOD UREA NITROGEN / CARBON DIOXIDE / CHLORIDE / CHOLESTEROL / CREATINE PHOSPHOKINASE / CREATININE / GLUCOSE / LACTATE DEHYDROGENASE / LIPASE / PHOSPHORUS / SODIUM / TOTAL BILIRUBIN / TOTAL PROTEIN / URIC ACID: tissue Plasma
[1] = 0 mg/kg, 72 h, dose level Control, time 3 day
[2] = 0 mg/kg, 120 h, dose level Control, time 5 day
[3] = 100 mg/kg, 72 h, dose level Low, time 3 day

In the case of `CCN(CC)C(=S)SSC(=S)N(CC)CC`, the “ABSOLUTE BASOPHIL” value [1] is reported as 0 CELLS/uL, the “ABSOLUTE EOSINOPHIL” value [1] is reported as 58.83 CELLS/uL and the “ABSOLUTE LYMPHOCYTE” value [1] is reported as 11823.5 CELLS/uL. The “ABSOLUTE MONOCYTE” value [1] was 169 CELLS/uL, the “ABSOLUTE SEGMENTED NEUTROPHIL” value [1] was 815.33 CELLS/uL and the BASOPHIL [1] was 0%. The EOSINOPHIL [1] was 0.5%, the “ERYTHROCYTE COUNT” value [1] was 5.52 x10E6/uL and the HEMATOCRIT [1] was 35.77%. For the same molecule, the HEMOGLOBIN [1] was 14.28 G/DL, the “LEUKOCYTE COUNT” value [1] was 12.87 x10E3/uL and the LYMPHOCYTE [1] was 91.67%. The “MEAN CORPUSCULAR HEMOGLOBIN” value [1] was 25.92 pg, the “MEAN CORPUSCULAR HEMOGLOBIN CONCENTRATION” value [1] was 39.95 G/DL and the “MEAN CORPUSCULAR VOLUME” value [1] was 64.85 fL. For the same molecule, the MONOCYTE [1] was 1.33%, the NEUTROPHIL [1] was 6.5% and the “NUCLEATED RED BLOOD CELLS” value [1] was 0 /100WBC. The “PLATELET COUNT” value [1] was 1246.17 x10E3/uL, the “ALANINE AMINOTRANSFERASE” value [1] was 66 u/L and the ALBUMIN [1] was 4.25 G/DL. The “ALKALINE PHOSPHATASE” value [1] was 416 u/L, the “ASPARTATE AMINOTRANSFERASE” value [1] was 106.17 u/L and the “BLOOD UREA NITROGEN” value [1] was 12.67 mg/dL. For the same molecule, the “CARBON DIOXIDE” value [1] was 31.83 mmol/L, the CHLORIDE [1] was 102.5 MEQ/L and the CHOLESTEROL [1] was 69 mg/dL. The “CREATINE PHOSPHOKINASE” value [1] was 601.83 u/L, the CREATININE [1] was 0.18 mg/dL and the GLUCOSE [1] was 154.5 mg/dL. The “LACTATE DEHYDROGENASE” value [1] was 301.83 u/L, the LIPASE [1] was 11.17 u/L and the PHOSPHORUS [1] was 12.08 mg/dL. The SODIUM [1] was 145.2 MEQ/L, the “TOTAL BILIRUBIN” value [1] was 0.17 mg/dL and the “TOTAL PROTEIN” value [1] was 6.1 G/DL. For the same molecule, the “URIC ACID” value [1] was 1.57 mg/dL, the “ABSOLUTE BASOPHIL” value [2] was 0 CELLS/uL and the “ABSOLUTE EOSINOPHIL” value [2] was 19.33 CELLS/uL. The “ABSOLUTE LYMPHOCYTE” value [2] was 12577.83 CELLS/uL, the “ABSOLUTE MONOCYTE” value [2] was 106.33 CELLS/uL and the “ABSOLUTE SEGMENTED NEUTROPHIL” value [2] was 896.5 CELLS/uL. The BASOPHIL [2] was 0%, the EOSINOPHIL [2] was 0.17% and the “ERYTHROCYTE COUNT” value [2] was 5.84 x10E6/uL. The HEMATOCRIT [2] was 36.88%, the HEMOGLOBIN [2] was 14.48 G/DL and the “LEUKOCYTE COUNT” value [2] was 13.6 x10E3/uL. The LYMPHOCYTE [2] was 92.17%, the “MEAN CORPUSCULAR HEMOGLOBIN” value [2] was 24.85 pg and the “MEAN CORPUSCULAR HEMOGLOBIN CONCENTRATION” value [2] was 39.3 G/DL. The “MEAN CORPUSCULAR VOLUME” value [2] was 63.23 fL, the MONOCYTE [2] was 0.83% and the NEUTROPHIL [2] was 6.83%. For the same molecule, the “NUCLEATED RED BLOOD CELLS” value [2] was 0 /100WBC, the “PLATELET COUNT” value [2] was 1223.5 x10E3/uL and the “ALANINE AMINOTRANSFERASE” value [2] was 55.33 u/L. For the same molecule, the ALBUMIN [2] was 4.08 G/DL, the “ALKALINE PHOSPHATASE” value [2] was 355.5 u/L and the “ASPARTATE AMINOTRANSFERASE” value [2] was 87.67 u/L. For the same molecule, the “BLOOD UREA NITROGEN” value [2] was 15.33 mg/dL, the “CARBON DIOXIDE” value [2] was 33.83 mmol/L and the CHLORIDE [2] was 99.67 MEQ/L. The CHOLESTEROL [2] was 72.17 mg/dL, the “CREATINE PHOSPHOKINASE” value [2] was 268.33 u/L and the CREATININE [2] was 0.15 mg/dL. For the same molecule, the GLUCOSE [2] was 152.5 mg/dL, the “LACTATE DEHYDROGENASE” value [2] was 212.67 u/L and the LIPASE [2] was 10.83 u/L. The PHOSPHORUS [2] was 11.65 mg/dL, the SODIUM [2] was 142.43 MEQ/L and the “TOTAL BILIRUBIN” value [2] was 0.23 mg/dL. The “TOTAL PROTEIN” value [2] was 6.07 G/DL, the “URIC ACID” value [2] was 1.7 mg/dL and the “ABSOLUTE BASOPHIL” value [3] was 0 CELLS/uL. For the same molecule, the “ABSOLUTE EOSINOPHIL” value [3] was 157.33 CELLS/uL, the “ABSOLUTE LYMPHOCYTE” value [3] was 16865.67 CELLS/uL and the “ABSOLUTE MONOCYTE” value [3] was 329 CELLS/uL. The “ABSOLUTE SEGMENTED NEUTROPHIL” value [3] was 2381.33 CELLS/uL, the BASOPHIL [3] was 0% and the EOSINOPHIL [3] was 0.67%. The “ERYTHROCYTE COUNT” value [3] was 5.56 x10E6/uL, the HEMATOCRIT [3] was 35.37% and the HEMOGLOBIN [3] was 14.23 G/DL. The “LEUKOCYTE COUNT” value [3] was 19.73 x10E3/uL, the LYMPHOCYTE [3] was 85.67% and the “MEAN CORPUSCULAR HEMOGLOBIN” value [3] was 25.63 pg. The “MEAN CORPUSCULAR HEMOGLOBIN CONCENTRATION” value [3] was 40.27 G/DL, the “MEAN CORPUSCULAR VOLUME” value [3] was 63.63 fL and the MONOCYTE [3] was 1.67%. The NEUTROPHIL [3] was 12%, the “NUCLEATED RED BLOOD CELLS” value [3] was 0 /100WBC and the “PLATELET COUNT” value [3] was 1201.33 x10E3/uL. For the same molecule, the “ALANINE AMINOTRANSFERASE” value [3] was 56 u/L, the ALBUMIN [3] was 3.87 G/DL and the “ALKALINE PHOSPHATASE” value [3] was 264.33 u/L. For the same molecule, the “ASPARTATE AMINOTRANSFERASE” value [3] was 73.33 u/L, the “BLOOD UREA NITROGEN” value [3] was 11.67 mg/dL and the “CARBON DIOXIDE” value [3] was 31.67 mmol/L. The CHLORIDE [3] was 102.33 MEQ/L, the CHOLESTEROL [3] was 84.33 mg/dL and the “CREATINE PHOSPHOKINASE” value [3] was 223.33 u/L. For the same molecule, the CREATININE [3] was 0.28 mg/dL, the GLUCOSE [3] was 140.67 mg/dL and the “LACTATE DEHYDROGENASE” value [3] was 124 u/L. It also gave an LIPASE [3] of 14.33 u/L, a PHOSPHORUS [3] of 11.63 mg/dL and an SODIUM [3] of 144.57 MEQ/L. The “TOTAL BILIRUBIN” value [3] was 0.1 mg/dL, the “TOTAL PROTEIN” value [3] was 5.7 G/DL and the “URIC ACID” value [3] was 1.23 mg/dL.
